Data taken from patent US7638514B2, “Pesticidally active phenol derivatives” (Syngenta Crop Protection, Inc., priority 2003, dated 2009).

Legend:
Type in all cases: in vivo
[1] = system: Plutella xylostella caterpillars; test: Action against Plutella xylostella caterpillars; conditions: 72 h, 400 ppm spray mixture on young cabbage plants, 10 caterpillars in the third stage, evaluation 3 days later, read-out: percentage reduction in population and percentage reduction in feeding damage (% activity)
Protocol: (§1) Young cabbage plants are sprayed with an aqueous emulsion spray mixture comprising 400 ppm of test compound. After the spray-coating has dried, the cabbage plants are populated with 10 caterpillars of Plutella xylostella in the third stage and placed in a plastics container. Evaluation is made 3 days later. The percentage reduction in population and the percentage reduction in feeding damage (% activity) are determined by comparing the number of dead caterpillars and the feeding damage on the treated plants with that on the untreated plants.

[2] = system: Spodoptera littoralis caterpillars; test: Action against Spodoptera littoralis; conditions: 72 h, 400 ppm spray mixture on young soybean plants, 10 caterpillars in the first stage, 3 days later, read-out: percentage reduction in population and percentage reduction in feeding damage (% activity)
Protocol: Young soybean plants are sprayed with an aqueous emulsion spray mixture comprising 400 ppm of test compound and, after the spray-coating has dried, the plants are populated with 10 caterpillars of Spodoptera littoralis in the first stage and then placed in a plastics container, 3 days later, the percentage reduction in population and the percentage reduction in feeding damage (% activity) are determined by comparing the number of dead caterpillars and the feeding damage on the treated plants with that on untreated plants.

[3] = system: Heliothis virescens caterpillars; test: Action against Heliothis virescens caterpillars; conditions: 144 h, 400 ppm spray mixture on young soybean plants, 10 caterpillars in the first stage, evaluation 6 days later, read-out: percentage reduction in population and percentage reduction in feeding damage (% activity)
Protocol: as §1, with “soybean” for “cabbage”, “Heliothis virescens” for “Plutella xylostella”, “first” for “third”, “6” for “3”

Measured: inhibition at 400 ppm

O=C(NCCCOc1c(Cl)cc(OCC=C(Cl)Cl)cc1Cl)C(=C(Cl)Cl)c1ccc(C(F)(F)F)cc1 [Compound 1.2, 3,3-dichloro-N-{3-[2,6-dichloro-4-(3,3-dichloro-allyloxy)-phenoxy]-propyl}-2-(4-trifluoromethyl-phenyl)-acrylamide]
> 80%: all assays above

C=C(COc1ccc(C(F)(F)F)cc1)COc1c(Cl)cc(OCC=C(Cl)Cl)cc1Cl [Compound 1.9, 1,3-dichloro-5-(3,3-dichloro-allyloxy)-2-[2-(4-trifluoromethyl-phenoxymethyl)-allyloxy]-benzene]
> 80%: all assays above
